Measured values: patent publication US20250140406A1, “CLASSIFYING TUMORS AND PREDICTING RESPONSIVENESS” (Oncocyte Corporation, priority 2022, published 2025)
Like-named read-outs stand apart in the source and are kept apart here.

Key:
[1] = tested on: cancer cell lines, DetermaIO classes; experiment: Association of PRISM compound sensitivity with DetermaIO (DTIO) cell line classes; type: cell-based
[2] = tested on: cancer cell lines classified IM, MSL, M; experiment: PRISM screen compound sensitivity correlated with IM, MSL and M subtype of cell lines (101 gene signature); type: cell-based; conditions: for TNBCType train: 101 gene signature
[3] = correlation of PRISM compound sensitivity with DTIO, test cell set
[4] = correlation of PRISM compound sensitivity with DTIO, training cell set
[5] = correlation of PRISM compound sensitivity with IM subtype correlation, test cell set
[6] = correlation of PRISM compound sensitivity with M subtype correlation, test cell set
[7] = correlation of PRISM compound sensitivity with MSL subtype correlation, test cell set
[8] = correlation of PRISM compound sensitivity with IM subtype correlation, test cell set (188 cell lines)
[9] = correlation of PRISM compound sensitivity with M subtype correlation, test cell set (188 cell lines)
[10] = correlation of PRISM compound sensitivity with MSL subtype correlation, test cell set (188 cell lines)
[11] = correlation of PRISM compound sensitivity with DTIO (DetermaIO), test cell set (188 cell lines)
[12] = correlation of PRISM compound sensitivity with DTIO (DetermaIO), training cell set (371 cell lines)

Row | SMILES | DTIO Corr test [1, 3] | DTIO Corr train [1, 4] | IM Corr test [2, 8] | M Corr test [2, 9] | MSL Corr test [2, 10] | DTIO Corr test [1, 11] | DTIO Corr train [1, 12] | further results
1 | COc1ccc(CN2C(=O)C(=O)c3cc(OC(F)(F)F)ccc32)cc1 [VU0238429] | −0.02333 | −0.07773 |  |  |  |  |  | IM Corr test [2, 5]: 0.04415; M Corr test [2, 6]: −0.1868; MSL Corr test [2, 7]: −0.1511
2 | Cc1cc(C)c(N(Cc2ccccc2)S(=O)(=O)c2ccc(OCCNC(=O)c3cc4ccccc4o3)cc2)c(C(=O)NO)c1 [WAY-170523] | 0.02955 | 0.0516 |  |  |  |  |  | IM Corr test [2, 5]: −0.0044; M Corr test [2, 6]: −0.01887; MSL Corr test [2, 7]: −0.04718; TNBCType train ([2]; subtype (IM, MSL or M) with which PRISM compound sensitivity is negatively correlated, training cell set): MSL
3 | COc1cc2ncnc(Nc3ccc(O)c(Br)c3)c2cc1OC [WHI-P154] | −0.06543 | −0.1245 | −0.227 | 0.2466 | 0.2152 |  |  | 
4 | C=CC(=O)Nc1cccc(Sc2nc(Nc3ccc(N4CCN(C)CC4)cc3)ncc2Cl)c1 [WZ8040] |  |  | −0.07504 | 0.1805 | 0.2895 | 0.0423 | −0.1387 | 
5 | C[C@@H](N)c1ccc(C(=O)Nc2ccnc3[nH]ccc23)cc1 [Y-39983] |  |  | 0.05616 | −0.1022 | −0.1761 | −0.02374 | −0.00611 | 
6 | Cc1cccc(NC(=O)N[C@@H]2N=C(c3ccccc3)c3ccccc3N(CC(=O)c3ccccc3C)C2=O)c1 [YM022] | −0.00858 | 0.03884 | −0.00497 | −0.05702 | −0.08788 |  |  | 
7 | C[C@@H]1CN(Cc2ccc(F)cc2)CCN1C(=O)COc1ccc(Cl)cc1NC(N)=O.Cl [ZK811752] |  |  | 0.1095 | −0.08132 | −0.00448 | 0.04281 | 0.09953 | 
8 | CC1(C)[C@@H](O[C@H]2O[C@H](C(=O)O)[C@@H](O)[C@H](O)[C@H]2O[C@@H]2O[C@H](C(=O)O)[C@@H](O)[C@H](O)[C@H]2O)CC[C@]2(C)[C@H]3C(=O)C=C4[C@@H]5C[C@@](C)(C(=O)O)CC[C@]5(C)CC[C@@]4(C)[C@]3(C)CC[C@@H]12 [ammonium-glycyrrhizinate] | −0.07896 | −0.06692 | −0.02605 | 0.0501 | 0.0971 |  |  | 
9 | CC(=O)OC[C@]12CCC(C)=C[C@H]1O[C@@H]1[C@H](O)[C@@H](OC(C)=O)[C@@]2(C)[C@]12CO2 [anguidine] |  |  |  |  |  |  |  | DTIO Corr test [1]: −0.124; DTIO Corr train [1]: −0.1638; IM Corr test [2]: −0.1066; M Corr test [2]: 0.09713; MSL Corr test [2]: 0.2083
10 | O=C1C(=O)N(Cc2ccc(Cl)c(Cl)c2)c2ccccc21 [apoptosis-activator-II] | 0.07557 | 0.02708 | 0.1037 | −0.1455 | −0.1886 |  |  | TNBCType train ([2]; subtype (IM, MSL or M) with which compound sensitivity is negatively correlated, training cell set (371 cell lines)): MSL
11 | COc1ccc(C2CNC(=O)NC2)cc1O[C@H]1C[C@@H]2CC[C@H]1C2 [atizoram] |  |  | −0.0276 | 0.01206 | −0.09365 | 0.000749 | −0.04268 | TNBCType train ([2]; subtype (IM, MSL or M) assigned to the compound by negative correlation of PRISM sensitivity with subtype, training cell set (371 cell lines)): MSL
12 | Cc1occc(=O)c1[O-].Cc1occc(=O)c1[O-].[O]=[V+2] [bis(maltolato)oxo-vanadium(IV)] | 0.09031 | 0.1485 | 0.04745 | −0.1743 | −0.04621 |  |  | DTIO Corr test ([1]; correlation of compound sensitivity with DetermaIO (DTIO), test set): 0.09031; DTIO Corr train ([1]; correlation of compound sensitivity with DetermaIO (DTIO), training set): 0.1485
13 | CCCC[C@H](NC(C)=O)C(=O)N[C@H]1CC(=O)NCCCC[C@@H](C(=O)O)NC(=O)[C@H](Cc2c[nH]c3ccccc23)NC(=O)[C@H](CCCN=C(N)N)NC(=O)[C@@H](Cc2ccccc2)NC(=O)[C@H](Cc2cnc[nH]2)NC1=O [bremelanotide] | −0.06366 | −0.07952 | −0.04735 | 0.07264 | −0.04913 |  |  | 
